Results published in patent US20020006942A1, “Methods of treating liver disorders and disorders associated with liver function” (priority 2000, published 2002).
One block for each molecule: values may come before it.

Experiments:
CYP7A1 = conditions: bile acid infused; Heuman et al., 1989; cited from earlier work
[1] = test system: cytokine mRNAs (TNFα, TGF-β1, IL1β) in THP-1 cells; assay: Cytokine mRNA expression by THP-1 cells (RNase protection assay); type: cell-based, human; conditions: 100 μM, 48 h
From the text: Hepatic cytokine mRNAs were quantitated using RNase protection assays, as follows. In vitro transcribed [α-^32P]-UTP labeled -antisense cytokine probes were generated using cytokine multi-probe template kits: Mouse mCK-2 (catalog # 45002P) and Mouse mCK-3 (catalog #45003P) (PharMingen International) and a MAXIscript in vitro transcription kit (catalog #1314) using T7 RNA polymerase per manufacturer instructions. The radiolabeled probes were eluted through G25 Sephadex columns (Boehringer Mannheim) to remove unincorporated nucleotides. RNase protection assays were performed with HybSpeed RPA kits (catalog #1412) (Ambion Inc.) according to the manufacturers specifications. For each reaction, 20 fig of total RNA was hybridized to approximately 50,000 cpm of the antisense cytokine probes and digested with a mixture of RNase A and RNase T1. The protected RNA fragments were separated via a 5% denaturing acrylamide gel. PhosporImager (Molecular Dynamics) analysis was used to visualize the protected RNA fragments. […] Cells were harvested and polyA mRNA extracted, as described above. The content of human cytokines mRNAs were quantited by RNase protection assays, as described above except human template kits were used (Human hCK-2-catalog # 45032P and Human hCK-3-catalog # 45033P) (PharMingen International).

[2] = test system: CYP7A1 mRNA expression by rat hepatoma L35 cells; assay: Direct treatment of L35 cells, CYP7A1 mRNA relative to β-actin; type: cell-based
hepatic CYP7A1 mRNA = assay: Hepatic CYP7A1 mRNA relative to GAPDH in C57BL/6 mice on chow or bile acid-containing atherogenic diet; type: in vivo, mouse; conditions: chow-fed mice, 1 mg/ml daily by oral gavage, p=ns
From the text: Female C3H/HeJ and [MUT] mice 10-12 weeks old (Jackson Laboratory, Bar Harbor, Me.) were housed in a room with a normal light cycle (lights on from 0600 to 1800) fed water ad libitum with either normal Purina breeder chow or ground Purina breeder chow supplemented with 20% olive oil, 2% cholesterol and 0.5% taurocholic acid (bile acid-contaning atherogenic diet) and water ad libitum. Mice were maintained on this diet for 3 weeks. After 3 weeks, mice were sacrificed at 0900. […] Mice were sacrificed at 0900 and blood was obtained for subsequent analysis. Livers were extracted for RNA, and polyA RNA was isolated, as described (Dueland, et al., 1993, J. Lipid.Res. 34:923-931; Dueland, et al., 1997, J. Lipid Res. 38:1445-1453). Poly A MRNA was blotted onto nitrocellulose and probed with ^32P-labeled cDNA encoding rat CYP7A1 and GAPDH (Duelandet al., 1993, J. Lipid Res. 34:923-931; Dueland, et al., 1997, J. Lipid Res. 38:1445-1453). The relative abundance of CYP7A1 mRNA to GAPDH mRNA was determined using Phosphorimager quantitation (Molecular Biosystems).

- CYP7A1 expression by L35 cells ([2]; CDCA 100 μM added directly to L35 cells, 24 hours): unaffected
Molecule: C[C@H](CCC(=O)O)[C@H]1CC[C@H]2[C@@H]3[C@H](O)C[C@@H]4C[C@H](O)CC[C@]4(C)[C@H]3CC[C@]12C [CDCA, chenodeoxycholic acid]
- ability to repress CYP7A1 (CYP7A1): potent repressor
- induction of TNFα, TGF-β1 and IL1β mRNAs by THP-1 cells [1]: > 10 fold

Molecule: C[C@H](CCC(=O)O)[C@H]1CC[C@H]2[C@@H]3[C@@H](O)C[C@@H]4C[C@H](O)CC[C@]4(C)[C@H]3CC[C@]12C [UDCA, ursodeoxycholic acid]
- ability to repress CYP7A1 (CYP7A1): does not repress

Molecule: CN(CCOc1ccc(CC2SC(=O)NC2=O)cc1)c1ccccn1 (stereo not drawn) [rosiglitazone]
- decrease in the expression of CYP7A1 (hepatic CYP7A1 mRNA): 30%

- expression of CYP7A1 by L35 cells ([2]; human TNFa alone, 24 h): repressed
Molecule: TNFa
